According to ChEMBL document CHEMBL6120977, “Structure-Affinity-Pharmacokinetics Relationships of Novel 18F-Labeled 1,4-Diazepane Derivatives for Orexin 1 Receptor Imaging” (J Med Chem, 2024):

How the values were obtained:
[1] = Biodistribution in male ddY mouse heart administered intravenously and measured at 10 mins postinjection by gamma counter analysis; type: ADME, organism-based; settings: in vivo, iv
[2] = Biodistribution in male ddY mouse brain administered intravenously and measured at 30 mins postinjection by gamma counter analysis; type: ADME, organism-based; settings: in vivo, iv, 0.5 h
[3] = Biodistribution in male ddY mouse stomach administered intravenously and measured per organ at 30 mins postinjection by gamma counter analysis; type: ADME, organism-based; settings: in vivo, iv, 0.5 h
[4] = Drug accumulation in male CD Sprague-Dawley rat hypothalamus assessed as increase in radioactivity at 40.1 kBq/ml incubated for 1 hrs in presence of BTF by autoradiography analysis; type: ADME, tissue-based
[5] = Biodistribution in male ddY mouse brain administered intravenously and measured at 60 mins postinjection by gamma counter analysis; type: ADME, organism-based; settings: in vivo, iv, 1 h
[6] = Biodistribution in male ddY mouse lung administered intravenously and measured at 60 mins postinjection by gamma counter analysis; type: ADME, organism-based; settings: in vivo, iv, 1 h
[7] = Biodistribution in male ddY mouse heart administered intravenously and measured at 2 mins postinjection by gamma counter analysis; type: ADME, organism-based; settings: in vivo, iv
[8] = Biodistribution in male ddY mouse spleen administered intravenously and measured at 10 mins postinjection by gamma counter analysis; type: ADME, organism-based; settings: in vivo, iv
[9] = Biodistribution in male ddY mouse bone administered intravenously and measured at 30 mins postinjection by gamma counter analysis; type: ADME, organism-based, Bone element; settings: in vivo, iv, 0.5 h
[10] = Biodistribution in male ddY mouse pancreas administered intravenously and measured at 60 mins postinjection by gamma counter analysis; type: ADME, organism-based; settings: in vivo, iv, 1 h
[11] = Biodistribution in male ddY mouse brain administered intravenously and measured at 2 mins postinjection by gamma counter analysis; type: ADME, organism-based; settings: in vivo, iv
[12] = Biodistribution in male ddY mouse bone administered intravenously and measured at 2 mins postinjection by gamma counter analysis; type: ADME, organism-based, Bone element; settings: in vivo, iv
[13] = Drug accumulation in male CD Sprague-Dawley rat amygdala assessed as increase in radioactivity at 40.1 kBq/ml incubated for 1 hrs in presence of BTF by autoradiography analysis; type: ADME, tissue-based
[14] = Biodistribution in male ddY mouse kidney administered intravenously and measured at 60 mins postinjection by gamma counter analysis; type: ADME, organism-based; settings: in vivo, iv, 1 h
[15] = Biodistribution in male ddY mouse pancreas administered intravenously and measured at 10 mins postinjection by gamma counter analysis; type: ADME, organism-based; settings: in vivo, iv
[16] = Drug uptake in male ddY mouse locus ceruleus at 407 kBq, iv measured for 5 to 10 mins by PET/CT imaging analysis; type: ADME, organism-based; settings: in vivo, time 5-10 min
[17] = Biodistribution in male ddY mouse lung administered intravenously and measured at 2 mins postinjection by gamma counter analysis; type: ADME, organism-based; settings: in vivo, iv
[18] = Biodistribution in male ddY mouse liver administered intravenously and measured at 2 mins postinjection by gamma counter analysis; type: ADME, organism-based; settings: in vivo, iv
[19] = Biodistribution in male ddY mouse stomach administered intravenously and measured per organ at 2 mins postinjection by gamma counter analysis; type: ADME, organism-based; settings: in vivo, iv
[20] = Biodistribution in male ddY mouse kidney administered intravenously and measured at 10 mins postinjection by gamma counter analysis; type: ADME, organism-based; settings: in vivo, iv
[21] = Biodistribution in male ddY mouse pancreas administered intravenously and measured at 2 mins postinjection by gamma counter analysis; type: ADME, organism-based; settings: in vivo, iv
[22] = Biodistribution in male ddY mouse brain administered intravenously and measured at 10 mins postinjection by gamma counter analysis; type: ADME, organism-based; settings: in vivo, iv
[23] = Biodistribution in male ddY mouse bone administered intravenously and measured at 10 mins postinjection by gamma counter analysis; type: ADME, organism-based, Bone element; settings: in vivo, iv
[24] = Biodistribution in male ddY mouse intestine administered intravenously and measured at 2 mins postinjection by gamma counter analysis; type: ADME, organism-based; settings: in vivo, iv
[25] = Biodistribution in male ddY mouse heart administered intravenously and measured at 30 mins postinjection by gamma counter analysis; type: ADME, organism-based; settings: in vivo, iv, 0.5 h
[26] = Biodistribution in male ddY mouse heart administered intravenously and measured at 60 mins postinjection by gamma counter analysis; type: ADME, organism-based; settings: in vivo, iv, 1 h
[27] = Biodistribution in male ddY mouse lung administered intravenously and measured at 10 mins postinjection by gamma counter analysis; type: ADME, organism-based; settings: in vivo, iv
[28] = Biodistribution in male ddY mouse lung administered intravenously and measured at 30 mins postinjection by gamma counter analysis; type: ADME, organism-based; settings: in vivo, iv, 0.5 h
[29] = Biodistribution in male ddY mouse blood administered intravenously and measured at 10 mins postinjection by gamma counter analysis; type: ADME, organism-based; settings: in vivo, iv
[30] = Biodistribution in male ddY mouse pancreas administered intravenously and measured at 30 mins postinjection by gamma counter analysis; type: ADME, organism-based; settings: in vivo, iv, 0.5 h
[31] = Biodistribution in male ddY mouse intestine administered intravenously and measured at 10 mins postinjection by gamma counter analysis; type: ADME, organism-based; settings: in vivo, iv
[32] = Biodistribution in male ddY mouse liver administered intravenously and measured at 30 mins postinjection by gamma counter analysis; type: ADME, organism-based; settings: in vivo, iv, 0.5 h
[33] = Biodistribution in male ddY mouse bone administered intravenously and measured at 60 mins postinjection by gamma counter analysis; type: ADME, organism-based, Bone element; settings: in vivo, iv, 1 h
[34] = Biodistribution in male ddY mouse intestine administered intravenously and measured at 30 mins postinjection by gamma counter analysis; type: ADME, organism-based; settings: in vivo, iv, 0.5 h
[35] = Drug uptake in male ddY mouse brain at 41 kBq, iv pretreated with BTF for 10 mins followed by compound administration and measured after 10 mins by gamma counter analysis; type: ADME, organism-based; settings: in vivo
[36] = Biodistribution in male ddY mouse spleen administered intravenously and measured at 30 mins postinjection by gamma counter analysis; type: ADME, organism-based; settings: in vivo, iv, 0.5 h
[37] = Drug accumulation in male CD Sprague-Dawley rat cortex assessed as increase in radioactivity at 40.1 kBq/ml incubated for 1 hrs in presence of BTF by autoradiography analysis; type: ADME, tissue-based
[38] = Biodistribution in male ddY mouse spleen administered intravenously and measured at 60 mins postinjection by gamma counter analysis; type: ADME, organism-based; settings: in vivo, iv, 1 h
[39] = Biodistribution in male ddY mouse stomach administered intravenously and measured per organ at 60 mins postinjection by gamma counter analysis; type: ADME, organism-based; settings: in vivo, iv, 1 h
[40] = Drug uptake in male ddY mouse hypothalamus at 407 kBq, iv measured for 5 to 10 mins by PET/CT imaging analysis; type: ADME, organism-based; settings: in vivo, time 5-10 min
[41] = Biodistribution in male ddY mouse intestine administered intravenously and measured at 60 mins postinjection by gamma counter analysis; type: ADME, organism-based; settings: in vivo, iv, 1 h
[42] = Biodistribution in male ddY mouse blood administered intravenously and measured at 2 mins postinjection by gamma counter analysis; type: ADME, organism-based; settings: in vivo, iv
[43] = Biodistribution in male ddY mouse blood administered intravenously and measured at 30 mins postinjection by gamma counter analysis; type: ADME, organism-based; settings: in vivo, iv, 0.5 h
[44] = Biodistribution in male ddY mouse kidney administered intravenously and measured at 30 mins postinjection by gamma counter analysis; type: ADME, organism-based; settings: in vivo, iv, 0.5 h
[45] = Biodistribution in male ddY mouse blood administered intravenously and measured at 60 mins postinjection by gamma counter analysis; type: ADME, organism-based; settings: in vivo, iv, 1 h
[46] = Biodistribution in male ddY mouse liver administered intravenously and measured at 60 mins postinjection by gamma counter analysis; type: ADME, organism-based; settings: in vivo, iv, 1 h
[47] = Biodistribution in male ddY mouse liver administered intravenously and measured at 10 mins postinjection by gamma counter analysis; type: ADME, organism-based; settings: in vivo, iv
[48] = Biodistribution in male ddY mouse spleen administered intravenously and measured at 2 mins postinjection by gamma counter analysis; type: ADME, organism-based; settings: in vivo, iv
[49] = Biodistribution in male ddY mouse stomach administered intravenously and measured per organ at 10 mins postinjection by gamma counter analysis; type: ADME, organism-based; settings: in vivo, iv
[50] = Biodistribution in male ddY mouse kidney administered intravenously and measured at 2 mins postinjection by gamma counter analysis; type: ADME, organism-based; settings: in vivo, iv
[51] = species on record: Homo sapiens; experiment: Selectivity ratio of IC50 for recombinant human OX2R expressed in CHO-S cells to IC50 for recombinant human OX1R expressed in CHO-S cells; type: cell-based; settings: tested as the 11C-labelled form
[52] = species on record: Homo sapiens; experiment: Selectivity ratio of IC50 for recombinant human OX2R extracted from HEK293T cell membrane to IC50 for recombinant human OX1R extracted from HEK293T cell membrane
[53] = target: T1, Orexin receptor type 2 (Homo sapiens, UniProt O43614); experiment: Displacement of [3H]EMPA from recombinant human OX2R extracted from HEK293T membrane by radioligand binding assay; type: cell membranes
T1 sequence (O43614 whole entry): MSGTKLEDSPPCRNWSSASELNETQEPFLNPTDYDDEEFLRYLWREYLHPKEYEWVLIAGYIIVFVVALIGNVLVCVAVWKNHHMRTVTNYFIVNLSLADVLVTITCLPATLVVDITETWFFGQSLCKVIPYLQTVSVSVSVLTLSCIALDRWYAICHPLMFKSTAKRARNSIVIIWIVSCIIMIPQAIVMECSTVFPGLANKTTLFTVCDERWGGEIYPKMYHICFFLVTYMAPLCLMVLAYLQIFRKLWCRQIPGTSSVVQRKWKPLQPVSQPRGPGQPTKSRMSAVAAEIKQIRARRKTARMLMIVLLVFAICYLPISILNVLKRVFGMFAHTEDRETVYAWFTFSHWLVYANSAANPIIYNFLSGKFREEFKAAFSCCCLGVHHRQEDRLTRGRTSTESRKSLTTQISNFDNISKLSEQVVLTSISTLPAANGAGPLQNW

[54] = target: T2, Orexin/Hypocretin receptor type 1 (Homo sapiens, UniProt O43613); experiment: Displacement of [3H]SB-674042 from recombinant human OX1R extracted from HEK293T membrane by radioligand binding assay; type: cell membranes
T2 sequence (O43613 whole entry): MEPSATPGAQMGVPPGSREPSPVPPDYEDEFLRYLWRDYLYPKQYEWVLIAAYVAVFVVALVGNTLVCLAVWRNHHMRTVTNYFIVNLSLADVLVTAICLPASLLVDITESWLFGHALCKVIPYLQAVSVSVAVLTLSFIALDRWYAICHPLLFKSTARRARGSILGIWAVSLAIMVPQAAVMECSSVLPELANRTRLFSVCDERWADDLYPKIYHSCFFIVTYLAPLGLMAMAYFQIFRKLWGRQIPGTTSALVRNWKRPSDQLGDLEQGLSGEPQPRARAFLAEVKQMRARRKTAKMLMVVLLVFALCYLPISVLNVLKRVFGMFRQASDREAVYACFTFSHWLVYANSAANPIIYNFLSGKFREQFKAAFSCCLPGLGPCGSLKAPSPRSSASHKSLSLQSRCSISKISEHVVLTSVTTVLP

Structure (SMILES): C[C@H]1CN(c2nc3ccccc3s2)CCCN1C(=O)c1cc([18F])ccc1-n1nccn1
- Drug uptake [1]: 3.02 % ID/g
- Drug uptake [2]: 0.17 % ID/g
- Drug uptake [3]: 2.39 %ID
- Drug uptake [4]: Not_active
- Drug uptake [5]: 0.07 % ID/g
- Drug uptake [6]: 1.17 % ID/g
- Drug uptake [7]: 7.48 % ID/g
- Drug uptake [8]: 1.87 % ID/g
- Drug uptake [9]: 1.77 % ID/g
- Drug uptake [10]: 0.61 % ID/g
- Drug uptake [11]: 2.98 % ID/g
- Drug uptake [12]: 2.69 % ID/g
- Drug uptake [13]: Not_active
- Drug uptake [14]: 1.84 % ID/g
- Drug uptake [15]: 3.1 % ID/g
- Drug uptake [16]: Active
- Drug uptake [17]: 8.48 % ID/g
- Drug uptake [18]: 16.2 % ID/g
- Drug uptake [19]: 1.4 %ID
- Drug uptake [20]: 4.99 % ID/g
- Drug uptake [21]: 7.16 % ID/g
- Drug uptake [22]: 0.82 % ID/g
- Drug uptake [23]: 1.4 % ID/g
- Drug uptake [24]: 4.74 % ID/g
- Drug uptake [25]: 1.51 % ID/g
- Drug uptake [26]: 0.54 % ID/g
- Drug uptake [27]: 4.13 % ID/g
- Drug uptake [28]: 2.2 % ID/g
- Drug uptake [29]: 3.2 % ID/g
- Drug uptake [30]: 0.92 % ID/g
- Drug uptake [31]: 15.7 % ID/g
- Drug uptake [32]: 17 % ID/g
- Drug uptake [33]: 1.87 % ID/g
- Drug uptake [34]: 28 % ID/g
- Drug uptake [35]: Not_active
- Drug uptake [36]: 0.66 % ID/g
- Drug uptake [37]: Not_active
- Drug uptake [38]: 0.29 % ID/g
- Drug uptake [39]: 1.05 %ID
- Drug uptake [40]: Active
- Drug uptake [41]: 34.5 % ID/g
- Drug uptake [42]: 6.02 % ID/g
- Drug uptake [43]: 1.74 % ID/g
- Drug uptake [44]: 3.99 % ID/g
- Drug uptake [45]: 0.64 % ID/g
- Drug uptake [46]: 10.8 % ID/g
- Drug uptake [47]: 28.6 % ID/g
- Drug uptake [48]: 3.26 % ID/g
- Drug uptake [49]: 2.16 %ID
- Drug uptake [50]: 9.76 % ID/g

Structure (SMILES): COc1ccnc(N2CCC3(CCN(Cc4cn(C)c5ccccc45)C(=O)C3)CC2)n1
- Ratio IC50 [51]: 5.6

Structure (SMILES): CC[C@H](C)[C@H]1CN(c2nc3cc(Cl)ccc3o2)CCCN1C(=O)c1cc(C)ccc1-n1nccn1
- Ratio IC50 [52]: 75
- IC50 [53]: 0.054 µM
- IC50 [54]: 0.00072 µM
